Where “and” joins values, the source holds several entries; their conditions need not be identical. Equal entries are not always repeated.
Settings: Crystal

CC/N=C(/N)S [ethylthiourea]
Settings	vapor or sublimation pressure
356.5 K, Calculated from knudsen effusion weight loss	0.000282 kPa
357 K, Calculated from knudsen effusion weight loss	0.000309 kPa
360 K, Torsion effusion method	0.000331 kPa
360.5 K, Calculated from knudsen effusion weight loss	0.000417 kPa
361 K, Torsion effusion method	0.000437 kPa
362 K, Calculated from knudsen effusion weight loss	0.00049 kPa
363 K, Torsion effusion method	0.000447 kPa
364 K, Torsion effusion method	0.00055 kPa
365 K, Torsion effusion method	0.000661 kPa
366 K, Torsion effusion method	0.000631 kPa
366.5 K, Torsion effusion method	0.000813 kPa
367 K, Torsion effusion method	0.000741 kPa
367.5 K, Calculated from knudsen effusion weight loss	0.000912 kPa
368 K, Torsion effusion method	0.000912 kPa and 0.000646 kPa
368.5 K, Torsion effusion method	0.000794 kPa
369 K, Torsion effusion method	0.000891 kPa
369.5 K, Torsion effusion method	0.001175 kPa
370 K, Torsion effusion method	0.001047 kPa and 0.000871 kPa
370.5 K, Torsion effusion method	0.001175 kPa
371 K, Torsion effusion method	0.001047 kPa and 0.001288 kPa and 0.001096 kPa
372 K, Torsion effusion method	0.000977 kPa
373 K, Torsion effusion method	0.001288 kPa
374 K, Torsion effusion method	0.00138 kPa and 0.001738 kPa
374.5 K, Torsion effusion method	0.001349 kPa
375 K, Torsion effusion method	0.001862 kPa [middle of 4 runs]
376 K, Torsion effusion method	0.001778 kPa [middle of 4 runs]
377 K, Torsion effusion method	0.001905 kPa and 0.001698 kPa
378 K, Torsion effusion method	0.002239 kPa [middle of 4 runs]
379 K, Torsion effusion method	0.002692 kPa and 0.002884 kPa
379.5 K, Torsion effusion method	0.00263 kPa
380 K, Torsion effusion method	0.002951 kPa and 0.002188 kPa
380.5 K, Torsion effusion method	0.002291 kPa

Reference: the NIST ThermoML archive (doi:10.1016/j.tca.2007.05.009)
